Assay [1] has as its system P. falciparum FcM29-Cameroon strain. As to the kind of experiment: Antimalarial chemosensitivity test (radioactive micromethod, tritiated hypoxanthine incorporation) on FcM29-Cameroon strain. The assay is classed as cell-based. The conditions noted are these: Plasmodium falciparum, Erythrocyte, read-out: IC50 (concentration required to inhibit parasite growth by 50%). Here is the method: (§1) The P. falciparum strains are cultured continuously according to the method of Trager and Jensen (Science, 1976, 193, 673-675): the parasites are maintained in human red blood cells (O±), diluted to a blood parasite level of 2% in RPMI 1640 medium supplemented with 25 mM of Hepes+24 mM NaHCO3+2 mM L-glutamine and with 5% of human serum of all groups. The parasites are incubated at 37° C. in a humid atmosphere and at 5% CO2.
The antimalarial activity tests are carried out according to the radioactive micromethod of Desjardins et al. (Antimicrob. Agents Chemother., 1979, 16, 710-718). Each molecule is tested in triplicate. The assays are carried out in 96-well microplates. The P. falciparum strains are cultured in solutions of RPMI 1640 supplemented with 5% of human serum with a haematocrit at 2% and a blood parasite level at 1.5%. For each assay, the parasites are incubated with decreasing concentrations of the test compounds for 48 h at 37° C., in a humid atmosphere and at 5% CO2. Artemisinin and chloroquine diphosphate are used as reference molecules. The first dilution of the test compounds is effected at 1 mg/ml in dimethyl sulphoxide. The dilution range for the successive daughter solutions is also prepared in dimethyl sulphoxide. Each daughter dilution is then diluted to 1/50th in RPMI 1640 supplemented with 5% of human serum, all the dilutions being carried out at 37° C. These dilutions are then added to the parasites in culture in the microplates. After addition of the test compound, the parasites are cultured in RPMI 1640 containing 5% of human serum and 1% of dimethyl sulphoxide. The parasite growth is measured by incorporation of tritiated hypoxanthine (added 24 h after the beginning of exposure to the test compound) and compared to the incorporation in the absence of the test compound (taken as 100%). The IC50 values (concentrations required to inhibit parasite growth by 50%) are determined by plotting the percentage inhibition as a function of the logarithm of the dose, using the GraphPad Prism 4® processing software (GraphPad Software Inc., 5755 Oberlin Drive, #110, San Diego, Calif. 92121, USA).

Assay [2] has as its system P. falciparum FcB1-Columbia strain. As to the kind of experiment: Antimalarial chemosensitivity test (radioactive micromethod, tritiated hypoxanthine incorporation) on FcB1-Columbia strain. The assay is classed as cell-based. The conditions noted are these: Plasmodium falciparum, read-out: IC50 (concentration required to inhibit parasite growth by 50%). Here is the method:
as §1
The antimalarial activity tests are carried out according to the radioactive micromethod of Desjardins et al. (Antimicrob. Agents Chemother., 1979, 16, 710-718). Each molecule is tested in triplicate. The assays are carried out in 96-well microplates. The P. falciparum strains are cultured in solutions of RPMI 1640 supplemented with 5% of human serum with a haematocrit at 2% and a blood parasite level at 1.5%. For each assay, the parasites are incubated with decreasing concentrations of the test compounds for 48 h at 37° C., in a humid atmosphere and at 5% CO2. Artemisinin and chloroquine diphosphate are used as reference molecules. The first dilution of the test compounds is effected at 1 mg/ml in dimethyl sulphoxide. […] The parasite growth is measured by incorporation of tritiated hypoxanthine (added 24 h after the beginning of exposure to the test compound) and compared to the incorporation in the absence of the test compound (taken as 100%). […]

Experimental findings from patent US7947701B2, “Dual molecules containing peroxy derivative, the synthesis and therapeutic applications thereof” (Sanofi-Aventis, priority 2003, dated 2011) are described below.

Structures are written as SMILES. Where two headings read alike, the source gives them in different places.

As to `CC(C)C1=C[C@H]2OC3(CCN(CCCNc4ccnc5cc(Cl)ccc45)CC3)OO[C@@]2(C)CC1` [PA1011], the IC50 in assay [1] (48 h) stood at 13 nM. On the same count and under the same terms, in the case of `Clc1ccc2c(NCCN3CCC4(CC3)OOC3(O4)C4CC5CC(C4)CC3C5)ccnc2c1` (stereo not shown) [PA1021, 7-Chloro-N-[2-(1H-dispiro[piperidine-4,3′-[1,2,4]trioxolane-5′,2″-tricyclo[3.3.1.1^3,7]decan]-1-yl)ethyl]quinolin-4-amine] it was 6 nM; in that of `CN(C)c1ccc2nccc(NCCN3CCC4(CC3)OOC3(O4)C4CC5CC(C4)CC3C5)c2c1` (stereo not shown) [PA1026, N^4-[2-(1H-Dispiro[piperidine-4,3,-[1,2,4]trioxolane-5′,2″-tricyclo[3.3.1.1^3,7]decan]-1-yl)ethyl]-N^6,N^6-dimethylquinoline-4,6-diamine], 4.4 nM.

In the case of `C[C@@H]1CC[C@H]2[C@@H](C)C(=O)O[C@@H]3O[C@@]4(C)CC[C@@H]1[C@]32OO4` [artemisinin], the IC50 in assay [1] (FcM29-Cameroon strain (very strongly chloroquine resistant), in human red blood cells, 48 h incubation) was determined as 5 nM; in assay [2] (Erythrocyte, FcB1-Columbia strain (moderately chloroquine resistant), in human red blood cells, 48 h incubation) it was 11 nM. Turning to `CCN(CC)CCCC(C)Nc1ccnc2cc(Cl)ccc12` (stereo not shown) [chloroquine], the IC50 stood at 258 nM in assay [1] (48 h) and 66 nM in assay [2] (FCB1, Erythrocyte, 48 h).
